According to PMC2785468, “Androgen Receptor Mutations Associated with Androgen Insensitivity Syndrome: A High Content Analysis Approach Leading to Personalized Medicine” (PLoS ONE, 2009):

Target: T1, AR-P766S (Homo sapiens, UniProt P10275, P767S)
T1 construct: expressed in transfected cells
T1 sequence (P10275 1-920 P767S): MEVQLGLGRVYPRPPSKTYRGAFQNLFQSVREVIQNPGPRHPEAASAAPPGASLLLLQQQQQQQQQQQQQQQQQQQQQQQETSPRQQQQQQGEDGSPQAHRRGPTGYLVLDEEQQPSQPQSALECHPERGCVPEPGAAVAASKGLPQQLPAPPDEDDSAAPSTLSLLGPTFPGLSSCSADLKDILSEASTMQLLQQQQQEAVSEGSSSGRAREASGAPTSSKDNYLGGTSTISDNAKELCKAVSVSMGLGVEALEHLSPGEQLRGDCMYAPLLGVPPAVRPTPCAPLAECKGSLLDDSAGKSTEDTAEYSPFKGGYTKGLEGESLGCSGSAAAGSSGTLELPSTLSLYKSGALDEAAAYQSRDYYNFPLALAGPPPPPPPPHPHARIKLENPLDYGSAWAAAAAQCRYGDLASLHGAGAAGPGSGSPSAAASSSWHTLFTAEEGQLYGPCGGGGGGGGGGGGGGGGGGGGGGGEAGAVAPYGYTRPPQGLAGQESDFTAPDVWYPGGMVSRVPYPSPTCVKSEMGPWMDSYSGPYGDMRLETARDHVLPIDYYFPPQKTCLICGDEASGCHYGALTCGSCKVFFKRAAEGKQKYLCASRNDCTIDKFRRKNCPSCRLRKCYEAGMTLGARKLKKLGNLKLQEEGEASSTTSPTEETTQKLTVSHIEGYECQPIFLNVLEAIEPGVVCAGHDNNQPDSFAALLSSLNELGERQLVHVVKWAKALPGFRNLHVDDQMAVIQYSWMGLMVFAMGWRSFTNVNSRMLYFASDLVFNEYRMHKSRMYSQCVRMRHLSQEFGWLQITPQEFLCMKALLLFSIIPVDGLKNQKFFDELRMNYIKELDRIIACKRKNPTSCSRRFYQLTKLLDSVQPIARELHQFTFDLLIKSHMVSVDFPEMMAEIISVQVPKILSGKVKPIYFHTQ
Format: cell-based
Conditions: HeLa P766S
Description: To determine the global effect of the various AIS mutations on AR signaling, each was analyzed using HCA. This technology allows simultaneous quantification of AR protein expression, nuclear translocation, subnuclear patterning, and transcriptional activity. The analysis was done in HeLa cell lines stably transfected with wild type or mutant ARs fused with green fluorescent protein, or using AR immunofluorescence in primary cultures of genital skin fibroblasts generated from foreskin biopsies of historical AIS patients, or of normal neonates undergoing circumcision at birth. To prevent the effects of receptor over-expression, stable HeLa cells were carefully selected to express AR levels similar to LNCaP as previously described. Prior to ligand treatment, HeLa cells were transfected with the pARR2PB-dsRED2skl reporter plasmid, consisting of the AR responsive promoter ARR2PB [31] driving expression of the red fluorescent protein reporter dsRED2skl engineered to target peroxisomes.
For studies utilizing HeLa GFP-AR cell lines, twenty-four hours before transfection with pARR2PB-dsRED2skl, cells were plated onto 100 mm plastic dishes in medium supplemented with 5% charcoal-stripped and dialyzed-FBS. Transient introduction of the pARR-2PB-dsRED2skl reporter construct was performed using 6.0 µg reporter plasmid and 6.0 µg carrier DNA (BlueScript, Stratagene, San Diego, CA) using Transfectin (Biorad) following standard protocols. After 8-hour incubation, DNA/lipid complexes were removed. Cells were then trypsinized and replated at 10,000 cells per well in Nunc poly-D-lysine treated 96-well optical glass bottom plates and incubated an additional 12 hours to allow for cell adhesion. […] Compound dilutions and final addition to multi-well plates were performed using a Beckman Biomek NX robotic platform to ensure repeatability from experiment to experiment. After incubation was complete, using the Biomek NX robot, plates were washed with PBS and fixed for 20 min at RT in 4% formaldehyde prepared in CSK buffer (80 mM potassium PIPES, pH 6.8, 5 mM EGTA, 2 mM MgCl2). After fixation, cells were briefly permeabilized (5 min) with 0.5% Triton-X and prepared for imaging by washing in PBS, aspirating the washed solution, and adding a 1 ng/ml DAPI solution to stain DNA and a generic protein stain (CellMask, Invitrogen) to facilitate cell and nuclear image segmentation. Cells were imaged in PBS.
Cells were imaged using the Cell Lab IC-100 Image Cytometer (IC-100; Beckman Coulter) platform that consists of 1) Nikon Eclipse TE2000-U Inverted Microscope (Nikon; Melville, NY); 2) Chroma 82000 triple band filter set (Chroma; Brattleboro, VT); 3) an imaging camera: Hamamatsu ORCA-ER Digital CCD camera (Hamamatsu; Bridgewater, NJ); and 4) a focusing camera: Photonics COHU Progressive scan camera (Photonics; Oxford, MA). […] In general, 49 to 64 images were captured per well for image analysis.
While our initial AR studies using HTM were based upon CytoShop (Beckman-Coulter), [15], [33], these approaches were refined in the current work with the more robust server-client Pipeline Pilot image analysis platform (Basic and Advanced Imagine Collections, Pipeline Pilot 7.5, Accelrys, San Diego). Initially, the background signal was removed from all images using plate- and channel-specific correction images, generated by the sum projection of >600 randomly selected images for each channel from the image set. This allows for a pixel-by-pixel background subtraction that compensates any consistent uneven background artifacts in the image set. Furthermore, users are able to customize the degree of background subtraction by applying a multiplier to each correction image, useful for identification of objects such as nuclei or cell borders. After background subtraction, nuclear masks were generated using a combination of non-linear least squares and watershed-from-markers image manipulations of the DAPI images (Fig. 1B).

C[C@@H]1CC2=CC(=O)CC[C@@H]2[C@H]2CC[C@@]3(C)[C@@H](CC[C@]3(C)O)[C@@H]21 [Mb, Mibolerone]
Nuclear Translocation, Max (% signal present in the nucleus): 78.9±1.5% | Hyperspeckling, Max (absolute numerical measurement): 785±30 | Transcriptional Activity, Max (pARR2PB-dsRED2skl reporter, absolute numerical measurement): 98±2.2
